Two compounds from patent US8546370B2, “Compounds and compositions as kinase inhibitors” (IRM LLC, priority 2008, dated 2013) can be followed below.

Assay [1] addresses Ba/F3 cells transformed with Tel-Syk (Homo sapiens, UniProt P43405). The conditions noted are these: read-out: IC50 in BaF3/Tel-Syk cellular assay. On the procedure: (§1) Luciferase expressing Ba/F3 murine pro-B cells are transformed with Tel-Syk, Tel-Zap70 or Tel-KDR. Cells are maintained in RPMI/10% fetal calf serum (RPMI/FCS) supplemented with penicillin 50 μg/mL, streptomycin 50 μg/mL and L-glutamine 200 mM. Untransformed Ba/F3 cells are similarly maintained with the addition of murine recombinant IL3. Cells are dispensed into 384-well format plate at 5000 cell/well in 50 μL of culture medium. Compounds of the invention are dissolved and diluted in dimethylsufoxide (DMSO). Twelve points 1:3 serial dilutions are made into DMSO to create concentrations gradient ranging from 10 mM to 0.05 μM. Cells are added with 50 nL of diluted compounds and incubated for 48 hours in cell culture incubator. Luminiscent signal is measured following the addition of Bright Glo® (Promega) luciferase substrate. IC50 values are calculated by linear regression analysis of the percentage inhibition of each compound at 12 concentrations.
(§2) Compounds of the invention are tested for their antiproliferative effect on Ba/F3 cells expressing either Tel-TrkA, Tel-TrkB or Tel-TrkC and an additional panel of 34 selected diverse kinases activated by fusion to the dimerizing partners Bcr or Tel (Abl, AlK, BMX, EphA3, EphB2, FGFR2, FGFR3, FGFR4, FGR, FLT1, FLT3, FLT4, FMS, IGF1R, InsR, JAK1, JAK2, JAK3, KDR, Kit, Lck, Lyn, MER, MET, PDGFRb, RET, RON, Ros-1, Src, Syk, TIE2, TYK2, Tie1, ZAP70). The antiproliferative effect of these compounds on the different cell lines and on the non transformed cells were tested at 12 different concentrations of 3-fold serially diluted compounds in 384 well plates as described above (in media lacking IL3). The IC50 values of the compounds the different cell lines were determined from the dose response curves obtained as describe above.

The target of assay [2] is Ba/F3 cells transformed with Tel-KDR (Homo sapiens, UniProt P35968). The conditions noted are these: read-out: IC50 in BaF3/Tel-KDR cellular assay. The procedure: as §1, §2
Ba/F3 cells transformed with Tel-KDR, sequence (P35968 20-1356 limits assumed, change not shown): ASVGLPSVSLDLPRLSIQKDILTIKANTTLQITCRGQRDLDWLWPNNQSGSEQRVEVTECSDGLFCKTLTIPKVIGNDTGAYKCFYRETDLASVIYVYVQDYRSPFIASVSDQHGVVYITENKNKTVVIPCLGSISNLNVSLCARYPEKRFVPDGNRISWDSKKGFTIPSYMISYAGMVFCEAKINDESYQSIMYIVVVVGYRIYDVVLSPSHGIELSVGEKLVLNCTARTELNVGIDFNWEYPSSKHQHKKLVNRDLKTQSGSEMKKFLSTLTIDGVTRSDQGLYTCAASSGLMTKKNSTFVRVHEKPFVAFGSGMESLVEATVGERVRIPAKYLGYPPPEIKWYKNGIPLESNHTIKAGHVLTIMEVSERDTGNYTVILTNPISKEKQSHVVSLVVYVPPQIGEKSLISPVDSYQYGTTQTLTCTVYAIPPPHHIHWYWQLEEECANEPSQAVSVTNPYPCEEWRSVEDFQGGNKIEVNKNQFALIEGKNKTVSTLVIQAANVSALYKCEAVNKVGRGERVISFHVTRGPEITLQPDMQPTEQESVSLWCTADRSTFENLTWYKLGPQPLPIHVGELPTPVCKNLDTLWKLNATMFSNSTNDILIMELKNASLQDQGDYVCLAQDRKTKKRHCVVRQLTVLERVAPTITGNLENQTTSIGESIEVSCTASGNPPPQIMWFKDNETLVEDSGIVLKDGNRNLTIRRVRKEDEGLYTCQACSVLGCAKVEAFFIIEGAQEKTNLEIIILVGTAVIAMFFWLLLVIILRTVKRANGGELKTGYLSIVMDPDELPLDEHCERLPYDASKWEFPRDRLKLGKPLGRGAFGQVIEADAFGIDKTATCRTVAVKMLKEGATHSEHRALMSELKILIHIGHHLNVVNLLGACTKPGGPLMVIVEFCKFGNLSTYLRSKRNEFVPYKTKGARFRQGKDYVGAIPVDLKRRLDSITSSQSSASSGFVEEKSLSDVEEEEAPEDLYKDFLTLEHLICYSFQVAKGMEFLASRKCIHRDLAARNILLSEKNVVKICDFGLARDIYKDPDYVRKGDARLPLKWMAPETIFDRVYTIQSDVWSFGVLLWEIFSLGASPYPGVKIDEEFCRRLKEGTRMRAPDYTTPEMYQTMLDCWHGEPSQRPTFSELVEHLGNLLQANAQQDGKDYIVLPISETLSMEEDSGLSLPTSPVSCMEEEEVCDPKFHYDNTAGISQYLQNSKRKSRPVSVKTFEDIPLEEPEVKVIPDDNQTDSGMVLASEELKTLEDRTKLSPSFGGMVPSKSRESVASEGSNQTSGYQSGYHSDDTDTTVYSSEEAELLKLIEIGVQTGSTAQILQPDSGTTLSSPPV
In another assay the target is CHK2 (Homo sapiens (Human), UniProt O96017). In words: Caliper LabChip mobility-shift kinase assay, single point. It counts as biochemical. To be noted: at a concentration of 5 μM. On the procedure:
(§3) In addition, compounds of Formula (I) were assessed for their ability to inhibit individual kinases utilizing Caliper Life Sciences' proprietary LabChip™ technology. A partial, non-limiting list of kinases includes: Syk, ZAP70, KDR, FMS, FLT3, c-Kit, RET, TrkA, TrkB, TrkC, IGR-1R, Alk and c-FMS kinases. The off-chip incubation mobility-shift kinase assay uses a microfluidic chip to measure the conversion of a fluorescent peptide substrate to a phosphorylated product. The reaction mixture, from a microtiter plate well, is introduced through a capillary sipper onto the chip, where the nonphosphorylated substrate and phosphorylated product are separated by electrophoresis and detected via laser induced fluorescence. […] The phosphorylated product migrates through the chip faster than the non-phosphorylated substrate, and signals from the two forms of the peptide appear as distinct peaks. Caliper's data analysis software (HTSWA) determines peak heights, from which the ratio of product to the peak sum P/(P+S) and percent (%) conversion is calculated. This value is used to compare compound wells to control wells present on the plate, and thereby determine the % inhibition values for the compound.
(§4) Generally, 12 μL of enzyme buffer containing purified kinase (various amount; various suppliers), 100 mM HEPES, pH 7.5, 1 mM DTT (Calbiochem, 2333153), 10 mM MgCl2 (Sigma, M-1028) or 10 mM MnCl2 (Sigma, M-1787) (assay specific), and 0.002% Brij-35 (Sigma, B4184) are added to each well. Compound and enzyme are allowed to pre-incubate for 15 minutes. 12 μL of peptide/ATP buffer containing 100 mM HEPES, pH 7.5, 1.5 μM fluorescein-labeled peptide (specific to kinase of interest), ATP (at KM apparent, Sigma, A9187), and 0.002% Brij-35 is then added to each well to initiate the reaction. The final concentration of DMSO in the well is 4%. Generally, reactions are incubated for 1 to 1.5 hours at room temperature to obtain adequate conversion of peptide to phosphorylated product in the linear range of the reaction. Reactions are terminated with the addition of 45 μL of Stop Buffer (containing 20 mM EDTA). Plates are then read on the LabChip 3000 using a 12-sipper LabChip. % conversion values and % inhibition values are obtained as described and IC50 curves of compounds are generated using GraphPad Prism Version 4 or 5.01, or XLfit Version 4.3.2. When using GraphPad Prism, a nonlinear curve fit using the sigmoidal dose response—variable slope fit was used to graph IC50 curves and determine IC50 values and hillslopes. When using XLfit, Fit Model 205 (4-Parameter Logistic Model) is used to generate and fit the IC50 curve.

The target in a further assay is FLT3 (Homo sapiens (Human), UniProt P36888). The assay is described as above. It counts as biochemical. To be noted: at a concentration of 5 μM. The procedure: as §3, §4
FLT3, sequence (P36888 27-993, species assumed): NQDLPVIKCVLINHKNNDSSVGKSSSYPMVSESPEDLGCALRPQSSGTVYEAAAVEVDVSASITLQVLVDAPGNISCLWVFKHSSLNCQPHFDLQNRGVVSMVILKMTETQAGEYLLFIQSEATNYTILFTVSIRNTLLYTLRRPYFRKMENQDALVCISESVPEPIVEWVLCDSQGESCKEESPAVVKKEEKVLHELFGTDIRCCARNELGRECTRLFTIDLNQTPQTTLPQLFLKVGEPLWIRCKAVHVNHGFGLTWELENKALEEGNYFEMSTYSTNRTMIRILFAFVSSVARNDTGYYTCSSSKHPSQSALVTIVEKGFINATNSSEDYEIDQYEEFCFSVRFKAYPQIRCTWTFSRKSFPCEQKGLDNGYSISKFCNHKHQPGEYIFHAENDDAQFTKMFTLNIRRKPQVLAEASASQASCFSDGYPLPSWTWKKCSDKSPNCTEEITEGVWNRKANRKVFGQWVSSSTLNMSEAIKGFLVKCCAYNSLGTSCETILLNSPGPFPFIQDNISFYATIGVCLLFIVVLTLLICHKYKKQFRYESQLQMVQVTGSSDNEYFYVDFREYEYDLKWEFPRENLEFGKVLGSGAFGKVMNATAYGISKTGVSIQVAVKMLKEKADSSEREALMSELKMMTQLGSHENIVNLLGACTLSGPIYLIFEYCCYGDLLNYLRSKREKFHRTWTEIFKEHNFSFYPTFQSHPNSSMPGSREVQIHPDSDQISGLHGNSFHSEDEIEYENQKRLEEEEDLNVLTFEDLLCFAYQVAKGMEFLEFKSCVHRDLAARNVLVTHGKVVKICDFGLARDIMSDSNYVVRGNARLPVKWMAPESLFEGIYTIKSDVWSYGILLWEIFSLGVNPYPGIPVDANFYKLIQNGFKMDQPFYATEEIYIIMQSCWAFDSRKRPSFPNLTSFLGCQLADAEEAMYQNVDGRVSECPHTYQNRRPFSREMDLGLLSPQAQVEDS
Another assay concerns the target KDR (Homo sapiens (Human), UniProt P35968). Described as above. It counts as biochemical. To be noted: at a concentration of 5 μM. The procedure:
as §3, §4

In a further assay the target is RET (Homo sapiens (Human), UniProt P07949). Described as above. It counts as biochemical. The conditions noted are these: at a concentration of 5 μM. On the procedure: as §3, §4
For a further assay, the target named is FMS (Homo sapiens (Human), UniProt P07333). Described as above. The conditions noted are these: at a concentration of 5 μM. It counts as biochemical. On the procedure: as §3, §4
FMS, sequence (P07333 20-972, species assumed): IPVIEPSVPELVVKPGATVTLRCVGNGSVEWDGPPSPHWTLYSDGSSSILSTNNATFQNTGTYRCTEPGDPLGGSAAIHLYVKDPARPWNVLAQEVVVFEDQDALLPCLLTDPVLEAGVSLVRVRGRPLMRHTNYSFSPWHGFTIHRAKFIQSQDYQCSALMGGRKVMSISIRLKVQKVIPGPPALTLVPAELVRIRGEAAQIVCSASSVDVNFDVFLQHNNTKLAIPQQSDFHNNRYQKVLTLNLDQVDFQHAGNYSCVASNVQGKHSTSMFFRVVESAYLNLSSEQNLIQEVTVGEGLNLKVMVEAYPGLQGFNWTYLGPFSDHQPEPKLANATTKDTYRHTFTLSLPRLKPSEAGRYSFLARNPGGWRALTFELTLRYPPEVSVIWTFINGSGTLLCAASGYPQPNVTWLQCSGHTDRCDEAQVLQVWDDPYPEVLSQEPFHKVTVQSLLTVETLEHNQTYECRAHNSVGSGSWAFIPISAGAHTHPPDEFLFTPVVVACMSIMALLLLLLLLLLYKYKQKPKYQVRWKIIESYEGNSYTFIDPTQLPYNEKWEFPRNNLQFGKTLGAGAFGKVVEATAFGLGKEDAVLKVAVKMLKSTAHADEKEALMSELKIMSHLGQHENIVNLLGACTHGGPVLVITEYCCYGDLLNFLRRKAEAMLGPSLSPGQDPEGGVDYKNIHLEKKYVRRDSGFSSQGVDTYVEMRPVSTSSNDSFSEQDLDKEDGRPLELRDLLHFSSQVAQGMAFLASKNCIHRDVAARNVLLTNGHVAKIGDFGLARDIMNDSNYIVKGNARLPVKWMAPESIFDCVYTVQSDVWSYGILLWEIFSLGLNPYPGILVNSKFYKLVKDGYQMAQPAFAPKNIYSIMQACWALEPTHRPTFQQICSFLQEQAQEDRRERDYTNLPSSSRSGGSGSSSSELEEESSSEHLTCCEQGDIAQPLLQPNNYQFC
Another assay has as its target TRKA (Homo sapiens (Human), UniProt P04629). Described as above. It counts as biochemical. To be noted: at a concentration of 5 μM. The procedure:
as §3, §4

In the next assay the target is JAK2 (Homo sapiens (Human), UniProt O60674). The assay is described as above. It counts as biochemical. To be noted: at a concentration of 5 μM. On the procedure:
as §3, §4

The target of another assay is Abl (Homo sapiens (Human), UniProt P00519). The description is as above. It counts as biochemical. To be noted: at a concentration of 5 μM. The procedure: as §3, §4
Assay [3] addresses Ba/F3 cells transformed with Tel c-Kit (Homo sapiens, UniProt P10721). The conditions noted are these: read-out: IC50 in BaF3/Tel-KIT cellular assay. The procedure:
as §2

Assay [4] concerns the target Ba/F3 cells expressing Tel-FMS (Homo sapiens, UniProt P07333). The conditions noted are these: read-out: IC50 in BaF3/Tel-FMS cellular assay. The procedure: as §2
The target of assay [5] is Ba/F3 cells transformed with human Tel-TrkA (Homo sapiens, UniProt P04629). To be noted: read-out: IC50 in BaF3/Tel-TRKA cellular assay. The procedure: as §2
Ba/F3 cells transformed with human Tel-TrkA, sequence (P04629 33-796 limits assumed, change not shown): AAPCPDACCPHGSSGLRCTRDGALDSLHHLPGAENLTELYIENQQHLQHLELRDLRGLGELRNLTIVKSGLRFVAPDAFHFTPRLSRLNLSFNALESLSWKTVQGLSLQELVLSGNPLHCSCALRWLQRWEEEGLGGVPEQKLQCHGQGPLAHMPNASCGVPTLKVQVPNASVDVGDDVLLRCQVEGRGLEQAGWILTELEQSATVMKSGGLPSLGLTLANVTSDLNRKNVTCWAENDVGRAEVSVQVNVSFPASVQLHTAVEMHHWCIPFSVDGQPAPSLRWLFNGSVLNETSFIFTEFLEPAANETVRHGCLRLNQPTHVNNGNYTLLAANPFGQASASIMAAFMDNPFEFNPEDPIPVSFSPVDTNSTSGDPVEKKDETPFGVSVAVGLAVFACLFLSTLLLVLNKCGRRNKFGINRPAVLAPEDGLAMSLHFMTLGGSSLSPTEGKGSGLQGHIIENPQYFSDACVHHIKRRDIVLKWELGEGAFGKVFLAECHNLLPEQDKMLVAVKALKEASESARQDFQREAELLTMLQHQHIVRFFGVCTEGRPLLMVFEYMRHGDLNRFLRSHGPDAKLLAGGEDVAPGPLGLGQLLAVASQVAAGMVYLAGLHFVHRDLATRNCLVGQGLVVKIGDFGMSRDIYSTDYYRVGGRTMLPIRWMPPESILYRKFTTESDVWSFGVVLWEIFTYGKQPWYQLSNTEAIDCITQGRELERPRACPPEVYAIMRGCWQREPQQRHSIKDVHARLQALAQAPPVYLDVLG
For assay [6], the target named is Ba/F3 cells expressing Tel-FLT3 (Homo sapiens, UniProt P36888). The conditions noted are these: read-out: IC50 in BaF3/Tel-FLT3 cellular assay. The procedure:
as §2

Ba/F3 cells expressing Tel-FMS, sequence (P07333 20-972 limits assumed, change not shown): as the sequence (P07333 20-972, species assumed) above
Ba/F3 cells transformed with Tel c-Kit, sequence (P10721 26-976 limits assumed, change not shown): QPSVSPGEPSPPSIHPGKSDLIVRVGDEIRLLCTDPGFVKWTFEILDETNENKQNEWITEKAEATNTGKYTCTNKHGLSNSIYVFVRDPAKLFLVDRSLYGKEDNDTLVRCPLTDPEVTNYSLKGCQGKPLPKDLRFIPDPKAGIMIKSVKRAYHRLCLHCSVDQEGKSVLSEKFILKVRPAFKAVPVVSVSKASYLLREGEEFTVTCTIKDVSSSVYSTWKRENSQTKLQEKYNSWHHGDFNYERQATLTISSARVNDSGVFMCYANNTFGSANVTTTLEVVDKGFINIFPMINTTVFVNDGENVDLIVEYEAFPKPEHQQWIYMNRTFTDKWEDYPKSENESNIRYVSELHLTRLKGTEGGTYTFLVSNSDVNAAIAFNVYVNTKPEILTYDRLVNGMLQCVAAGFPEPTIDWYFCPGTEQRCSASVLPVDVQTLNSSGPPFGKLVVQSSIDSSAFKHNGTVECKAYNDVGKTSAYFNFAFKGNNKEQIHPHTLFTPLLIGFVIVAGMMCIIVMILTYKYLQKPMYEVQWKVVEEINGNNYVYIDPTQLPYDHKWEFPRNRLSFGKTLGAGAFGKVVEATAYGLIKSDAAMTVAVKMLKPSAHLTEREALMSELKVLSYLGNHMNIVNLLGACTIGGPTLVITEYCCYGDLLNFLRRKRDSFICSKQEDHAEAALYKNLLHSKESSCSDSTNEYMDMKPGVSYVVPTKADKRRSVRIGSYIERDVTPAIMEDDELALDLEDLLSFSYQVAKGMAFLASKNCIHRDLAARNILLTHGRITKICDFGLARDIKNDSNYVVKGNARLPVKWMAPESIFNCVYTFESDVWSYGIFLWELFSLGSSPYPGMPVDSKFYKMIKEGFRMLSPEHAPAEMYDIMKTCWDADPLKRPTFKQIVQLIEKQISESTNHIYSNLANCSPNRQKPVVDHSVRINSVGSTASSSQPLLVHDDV
KDR, sequence (P35968 20-1356, species assumed): as the sequence (P35968 20-1356 limits assumed, change not shown) above
Ba/F3 cells expressing Tel-FLT3, sequence (P36888 27-993 limits assumed, change not shown): as the sequence (P36888 27-993, species assumed) above

`O=c1[nH]ccc2cc(-c3ccccc3)nc(Nc3ccc(N4CCOCC4)cc3)c12` [No 11, 8-(4-morpholinophenylamino)-6-phenyl-2,7-naphthyridin-1(2H)-one]: the IC50 in assay [1] worked out at 0.15 µM; in [2], 0.27 µM; in assay [3], 0.02 µM; in [4], 0.02 µM; in assay [5], 0.07 µM. The inhibition at 5 µM on CHK2 is 94%; at FLT3, 100%; at KDR, 96%; on RET, 99%; at FMS, 84%; at TRKA, 74%. For the same compound, the inhibition at 5 µM on JAK2 was found to be 96%; on Abl, 100%.
Regarding `CCN1CCN(c2cc3cc[nH]c(=O)c3c(Nc3ccc(N4CCOCC4)cc3)n2)CC1` [No 83, 8-(4-morpholinophenylamino)-6-(4-ethylpiperazin-1-yl)-2,7-naphthyridin-1(2H)-one], the IC50 was 0.12 µM in assay [1]; 5 µM in assay [2]; 1.22 µM in assay [3]; 0.53 µM in assay [6]; 0.5 µM in assay [4]; 0.49 µM in assay [5].

For orientation: inhibition means the drop in the measured response relative to a control, in per cent.
